The test system of experiment [1] is Fusarium verticillioides. The experiment can be described thus: Fungicidal activity against Fusarium verticilliodes isolate YZ07 in rice seeds harvested from bakane diseased plants assessed as number of seedlings abnormally elongated or exhibiting symptoms of damping-off at 25 ug/ml at 30 degC incubated for 72 hr measured after 3 days under greenhouse trials (reference value: 43.2%). The experiment is classed as functional.

Experiment [2] relates to Fusarium verticillioides. In words: Fungicidal activity against Fusarium verticilliodes isolate JS04 in rice seeds harvested from bakane diseased plants assessed as number of seedlings abnormally elongated or exhibiting symptoms of damping-off at 25 ug/ml at 30 degC incubated for 72 hr measured after 3 days under greenhouse trials (reference value: 16.2%). The class given is functional.

Experiment [3] concerns Fusarium verticillioides. The experiment can be described thus: Fungicidal activity against Fusarium verticilliodes isolate JS02 in rice seeds harvested from bakane diseased plants assessed as number of seedlings abnormally elongated or exhibiting symptoms of damping-off at 12.5 ug/ml at 30 degC incubated for 72 hr measured after 3 days under greenhouse trials (reference value: 24.9%). The experiment is classed as functional.

Experiment [4] concerns Fusarium verticillioides. In words: Fungicidal activity against Fusarium verticilliodes isolate YZ22 in rice seeds harvested from bakane diseased plants assessed as number of seedlings abnormally elongated or exhibiting symptoms of damping-off at 12.5 ug/ml at 30 degC incubated for 72 hr measured after 3 days under greenhouse trials (reference value: 22.5%). The experiment is classed as functional.

The subject of experiment [5] is Fusarium verticillioides. The experiment can be described thus: Fungicidal activity against Fusarium verticilliodes assessed as mycelial growth inhibition at 25 degC after 3 to 5 days. The experiment is classed as functional, organism-based.
Experiment [6] concerns Fusarium verticillioides. In words: Fungicidal activity against Fusarium verticilliodes isolate JS04 in rice seeds harvested from bakane diseased plants assessed as number of seedlings abnormally elongated or exhibiting symptoms of damping-off at 8.33 ug/ml at 30 degC incubated for 72 hr measured after 3 days under greenhouse trials (reference value: 16.2%). The class given is functional.

Experiment [7] deals with Fusarium verticillioides. In words: Fungicidal activity against Fusarium verticilliodes isolate YZ10 in rice seeds harvested from bakane diseased plants assessed as number of seedlings abnormally elongated or exhibiting symptoms of damping-off at 8.33 ug/ml at 30 degC incubated for 72 hr measured after 3 days under greenhouse trials (reference value: 49.2%). The experiment is classed as functional.

Experiment [8] relates to Fusarium verticillioides. The experiment can be described thus: Fungicidal activity against Fusarium verticilliodes isolate YZ22 in rice seeds harvested from bakane diseased plants assessed as number of seedlings abnormally elongated or exhibiting symptoms of damping-off at 8.33 ug/ml at 30 degC incubated for 72 hr measured after 3 days under greenhouse trials (reference value: 22.5%). The class given is functional.

Experiment [9] deals with Fusarium verticillioides. The experiment can be described thus: Fungicidal activity against Fusarium verticilliodes isolate YZ09 in rice seeds harvested from bakane diseased plants assessed as number of seedlings abnormally elongated or exhibiting symptoms of damping-off at 6.25 ug/ml at 30 degC incubated for 72 hr measured after 3 days under greenhouse trials (reference value: 17.5%). The experiment is classed as functional.

Experiment [10] concerns Fusarium verticillioides. The experiment can be described thus: Fungicidal activity against Fusarium verticilliodes isolate JS06 in rice seeds harvested from bakane diseased plants assessed as number of seedlings abnormally elongated or exhibiting symptoms of damping-off at 25 ug/ml at 30 degC incubated for 72 hr measured after 3 days under greenhouse trials (reference value: 25.2%). The experiment is classed as functional.

The test system of experiment [11] is Fusarium verticillioides. The experiment can be described thus: Fungicidal activity against Fusarium verticilliodes isolate YZ10 in rice seeds harvested from bakane diseased plants assessed as number of seedlings abnormally elongated or exhibiting symptoms of damping-off at 25 ug/ml at 30 degC incubated for 72 hr measured after 3 days under greenhouse trials (reference value: 49.2%). The experiment is classed as functional.

In brackets after ≈: the same amount, converted by molar mass.

By EC50 is commonly meant the concentration that produces a half-maximal response. On to `CCOC(=O)/C(C#N)=C(/N)c1ccccc1`, for which the Activity with Fusarium verticillioides [1] is 0%; in the experiment on Fusarium verticillioides [2], 0%; in the experiment on Fusarium verticillioides [3], 0%; with Fusarium verticillioides [4], 0.5%; in the experiment on Fusarium verticillioides [6], 1%; in the experiment on Fusarium verticillioides [7] it was 0%. Also, the Activity in the experiment on Fusarium verticillioides [8] stood at 0.5%; with Fusarium verticillioides [9], 2.8%; with Fusarium verticillioides [10], 0%; in the experiment on Fusarium verticillioides [11] it was 0%. Besides, the concentration giving a half-maximal response (EC50) in the experiment with Fusarium verticillioides [5] was 0.316 µg/mL (≈ 1.46 µM).

The record behind these values is ChEMBL document CHEMBL3044907, “Sensitivity of Fusarium verticillioides isolates from rice to a novel cyanoacrylate fungicide” (Crop Prot, 2012).
